Data from EP2787958B1, “CHELIDONIUM MAJUS EXTRACTS AND THEIR USE IN THE TREATMENT OF SKIN DISORDERS AND PROMOTION OF SKIN REGENERATION” (priority 2011, dated 2013).
Where two headings read alike, the source gives them in different places. Values belong to the molecule of their own block, whether it stands above or below them.

Tests used:
interleukin 1β (IL-1β) = experiment: Inflammatory cytokines in cell supernatant (Mosaic ELISA microarray): IL-1β; format: cell-based, Human; conditions: for IL-1β ng/(ml* No. of cells from photo) ± SD: 24 hours; for IL-1β production (effect in words): 1-10 µM
interleukin 6 (IL-6) = experiment: Inflammatory cytokines in cell supernatant (Mosaic ELISA microarray): IL-6; format: cell-based, Human; conditions: for IL-6 ng/(ml* No. of cells from photo) ± SD: 24 hours; for IL-6 production (effect in words): 1-10 µM
HDF cells [1] = experiment: Evaluation of cell morphology (Sirius Red stained cells, microscopy); format: cell-based, Human
Method: Their morphology, colour and shape have been evaluated by using the ImageJ software program.
The results of the effects on cell morphology, produced by the treatment with the test compounds for 24 hours at the concentrations specified, in HDF cells stained for collagen with PSR are shown in Figures 4a-d, 5a-d and 6a-f. These Figures allow evaluating cell morphology through light microscopy observation at magnifications of 100x, 200x and 400x for HDF cells cultured under standard growth conditions, in the presence of 100 µM H2O2 and in the presence of 34 ng/ml TGF-β1.

HDF cells [2] = experiment: Summary of uses and toxic effects deduced from the cell assays (Table 1); format: cell-based, Human
Outline: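 HDF cells exposed to test substances at a given dosage for 24 h; uses and toxicity inferred from free-radical scavenging, mitochondrial dehydrogenase activity, IL-1β/IL-6 production (basal or induced by 100 µM H2O2), proliferation under standard growth conditions, and senescence-like morphology.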

[3] = test system: Human dermal fibroblasts (HDF); experiment: Mitochondrial dehydrogenase activity (WST-1 formazan assay) in HDF cells; conditions: for activity at 1 µM / activity at 10 µM / activity at 7.3 µM: Homo sapiens, Fibroblast, read-out: % mitochondrial dehydrogenase activity ± SD; for Revitalizing agent: 24 hours
HDF cells [4] = experiment: Evaluation of cell proliferation (counting of Sirius Red stained cells in photographs); conditions: 24 hours
[5] = Anti-radical activity (decay of the DPPH radical); format: biochemical; conditions: for Anti-radical (skin protective): 24 hours
Outline: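 Test substance in ethanol mixed 1:1 with 200 µM DPPH (stock concentrations), in quadruplicate. Absorbance read at 530 nm after 30 min, with vitamin C and ethanol-only controls. IC50 from variable-slope Hill regression of dose-activity curves.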

[6] = test system: collagen produced by HDF cells; experiment: Quantity of collagen produced by the cells (elution of Sirius Red)
[7] = Dose 1 µm (coptisine: 1 pm [sic]), 24 hours
[8] = Dose 1 µm (coptisine: 1 pm [sic])

SMILES: C[n+]1cc2c3c(ccc2c2ccc4cc5c(cc4c21)OCO5)OCO3 [sanguinarine]
IL-1β ng/(ml* No. of cells from photo) ± SD (interleukin 1β (IL-1β); 1 µM, 34 ng/ml TGF-β1): 297±13 ng/(ml* No. of cells from photo) | IL-1β ng/(ml* No. of cells from photo) ± SD (interleukin 1β (IL-1β); 1 µM, 100 µM H2O2): 253±9 ng/(ml* No. of cells from photo) | IL-1β ng/(ml* No. of cells from photo) ± SD (interleukin 1β (IL-1β); 1 µM, Standard conditions): 75±1 ng/(ml* No. of cells from photo) | IL-1β ng/(ml* No. of cells from photo) ± SD (interleukin 1β (IL-1β); 10 µM, 34 ng/ml TGF-β1): 16400±5000 ng/(ml* No. of cells from photo) | IL-1β ng/(ml* No. of cells from photo) ± SD (interleukin 1β (IL-1β); 10 µM, 100 µM H2O2): 18400±2800 ng/(ml* No. of cells from photo) | IL-1β ng/(ml* No. of cells from photo) ± SD (interleukin 1β (IL-1β); 10 µM, Standard conditions): 4535±81 ng/(ml* No. of cells from photo) | IL-6 ng/(ml* No. of cells from photo) ± SD (interleukin 6 (IL-6); 1 µM, 34 ng/ml TGF-β1): 2167±279 ng/(ml* No. of cells from photo) | IL-6 ng/(ml* No. of cells from photo) ± SD (interleukin 6 (IL-6); 1 µM, 100 µM H2O2): 2374±264 ng/(ml* No. of cells from photo) | IL-6 ng/(ml* No. of cells from photo) ± SD (interleukin 6 (IL-6); 1 µM, Standard conditions): 470±32 ng/(ml* No. of cells from photo) | IL-6 ng/(ml* No. of cells from photo) ± SD (interleukin 6 (IL-6); 10 µM, 34 ng/ml TGF-β1): 56600±9000 ng/(ml* No. of cells from photo) | IL-6 ng/(ml* No. of cells from photo) ± SD (interleukin 6 (IL-6); 10 µM, 100 µM H2O2): 66300±5000 ng/(ml* No. of cells from photo) | IL-6 ng/(ml* No. of cells from photo) ± SD (interleukin 6 (IL-6); 10 µM, Standard conditions): 17786±27 ng/(ml* No. of cells from photo) | cell morphology (HDF cells [1]; 1 µM): senescent morphology | cell morphology (HDF cells [1]; 10 µM): complete absence of cells | Cytotoxic (HDF cells [2]; [7]): Yes (senescent morph., ↓dehydrogenase) | Irritant (HDF cells [2]; [7]): Yes (↑IL-6, ↑IL-1β) | Cytotoxic (HDF cells [2]; Dose 10 µm, 24 hours): Yes (cell death, ↓dehydrogenase) | Irritant (HDF cells [2]; Dose 10 µm, 24 hours): Yes (↑IL-6, ↑IL-1β) | concentrations at which toxic (cytotoxic and irritant) effects are shown (HDF cells [2]; exposure for 24 hours): greater than or equal to 1 µM | concentrations above which marked inhibition of mitochondrial dehydrogenase activity is caused ([3]; 18 h and 42 h): higher than 1 µM | activity at 1 µM ([3]; 18 h): 83.3 ± 6.83% | activity at 10 µM ([3]; 18 h): -1.57 ± 1.65% | activity at 1 µM ([3]; 42 h): -2.8 ± 3.67% | activity at 10 µM ([3]; 42 h): -16.6 ± 2.55% | No. of cells from photo ± SD (HDF cells [4]; 1 µM, 34 ng/ml TGF-β1): 86±7 | No. of cells from photo ± SD (HDF cells [4]; 1 µM, 100 µM H2O2): 110±18 | No. of cells from photo ± SD (HDF cells [4]; 1 µM, Standard conditions): 30±9 | No. of cells from photo ± SD (HDF cells [4]; 10 µM, 34 ng/ml TGF-β1): 1±0 | No. of cells from photo ± SD (HDF cells [4]; 10 µM, 100 µM H2O2): 1±0 | No. of cells from photo ± SD (HDF cells [4]; 10 µM, Standard conditions): 1±0

IC50 ([5]; anti-radical activity, Hill equation): 62 µM
SMILES: COc1ccc2c(c1OC)CN1CCc3cc4c(cc3C1=C2)OCO4 [dihydroberberine]
IL-1β ng/(ml* No. of cells from photo) ± SD (interleukin 1β (IL-1β); 1 µM, 34 ng/ml TGF-β1): 99±10 ng/(ml* No. of cells from photo) | IL-1β ng/(ml* No. of cells from photo) ± SD (interleukin 1β (IL-1β); 1 µM, 100 µM H2O2): 164±1 ng/(ml* No. of cells from photo) | IL-1β ng/(ml* No. of cells from photo) ± SD (interleukin 1β (IL-1β); 1 µM, Standard conditions): 108±1 ng/(ml* No. of cells from photo) | IL-1β ng/(ml* No. of cells from photo) ± SD (interleukin 1β (IL-1β); 7.3 µM, 34 ng/ml TGF-β1): 129±1 ng/(ml* No. of cells from photo) | IL-1β ng/(ml* No. of cells from photo) ± SD (interleukin 1β (IL-1β); 7.3 µM, 100 µM H2O2): 212±18 ng/(ml* No. of cells from photo) | IL-1β ng/(ml* No. of cells from photo) ± SD (interleukin 1β (IL-1β); 7.3 µM, Standard conditions): 125±2 ng/(ml* No. of cells from photo) | IL-1β production (effect in words) (interleukin 1β (IL-1β); 34 ng/ml TGF-β1): antagonizes the stimulation of IL-1β induced by 34 ng/ml TGF-β1 | IL-1β production (effect in words) (interleukin 1β (IL-1β); 100 µM H2O2): tendency to increase IL-1β production in a dose-dependent manner | IL-1β production (effect in words) (interleukin 1β (IL-1β); standard conditions): tendency to increase IL-1β production in a dose-dependent manner | IL-6 ng/(ml* No. of cells from photo) ± SD (interleukin 6 (IL-6); 1 µM, 34 ng/ml TGF-β1): 512±25 ng/(ml* No. of cells from photo) | IL-6 ng/(ml* No. of cells from photo) ± SD (interleukin 6 (IL-6); 1 µM, 100 µM H2O2): 1328±2 ng/(ml* No. of cells from photo) | IL-6 ng/(ml* No. of cells from photo) ± SD (interleukin 6 (IL-6); 1 µM, Standard conditions): 541±24 ng/(ml* No. of cells from photo) | IL-6 ng/(ml* No. of cells from photo) ± SD (interleukin 6 (IL-6); 7.3 µM, 34 ng/ml TGF-β1): 704±60 ng/(ml* No. of cells from photo) | IL-6 ng/(ml* No. of cells from photo) ± SD (interleukin 6 (IL-6); 7.3 µM, 100 µM H2O2): 1685±444 ng/(ml* No. of cells from photo) | IL-6 ng/(ml* No. of cells from photo) ± SD (interleukin 6 (IL-6); 7.3 µM, Standard conditions): 534±39 ng/(ml* No. of cells from photo) | IL-6 production (effect in words) (interleukin 6 (IL-6); 34 ng/ml TGF-β1): tendency to antagonise the stimulation of IL-6 induced by TGF-β1 | IL-6 production (effect in words) (interleukin 6 (IL-6); 100 µM H2O2): significant effects in modulating IL-6 production | IL-6 production (effect in words) (interleukin 6 (IL-6); standard conditions): significant effects in modulating IL-6 production | anti-radical effects (in words) ([5]; 1 mM): shows anti-radical effects | % DPPH activity ([5]; 1 mM, 30 minutes): 55% | Anti-radical (skin protective) [5, 8]: Yes | Anti-radical (skin protective) ([5]; Dose 7.3 µm): Yes | Cytotoxic (HDF cells [2]): No | Anti-fibrotic (prevention of scar formation, also from acne) (HDF cells [2]; [7]): Yes (↓collagen) | Cytoprotective (antioxidant, anti-inflammatory and anti-ageing; useful also in the treatment of acne) (HDF cells [2]; [7]): No | Wound-healing (HDF cells [2]; [7]): No | Anti-fibrotic (prevention of scar formation, also from acne) (HDF cells [2]; Dose 7.3 µm, 24 hours): Yes (↓collagen) | Cytoprotective (antioxidant, anti-inflammatory and anti-ageing; useful also in the treatment of acne) (HDF cells [2]; Dose 7.3 µm, 24 hours): No | Cytotoxic (HDF cells [2]; Dose 7.3 µm, 24 hours): No | Irritant (HDF cells [2]; Dose 7.3 µm, 24 hours): Yes (↑IL-6, ↑IL-1β) | Wound-healing (HDF cells [2]; Dose 7.3 µm, 24 hours): No | concentrations at which toxic (irritant) effects are shown (HDF cells [2]; exposure for 24 hours): greater than or equal to 1 µM | Irritant (HDF cells [2]; human, 24 h, 1 µm): Yes (↑IL-6, ↑IL-1β) | collagen production (effect in words) ([6]; 1-10 µM (1 µM and 10 µM), 34 ng/ml TGF-β1): antagonizes the stimulation of collagen induced by 34 ng/ml TGF-β1 | collagen production (effect in words) ([6]; 1-10 µM (1 µM and 10 µM), 100 µM H2O2): stimulates collagen production in a dose-dependent manner | collagen production (effect in words) ([6]; 1-10 µM, standard conditions): stimulates collagen production in a dose-dependent manner | concentrations below which no significant effects on mitochondrial dehydrogenase activity are shown [3]: below 0.1 µM | mitochondrial dehydrogenase activity (effect in words) ([3]; 100 µM): reduced | mitochondrial dehydrogenase activity (effect in words) ([3]; 1 and 10 µM, 18 h and 42 h, more marked at 42 h): increased with respect to the control | Revitalizing agent [3, 8]: Yes | Revitalizing agent ([3]; Dose 7.3 µm): Yes | activity at 1 µM ([3]; 18 h): 131 ± 5.4% | activity at 7.3 µM ([3]; 18 h): 128 ± 13.8% | activity at 1 µM ([3]; 42 h): 143 ± 14.1% | activity at 7.3 µM ([3]; 42 h): 137 ± 17.6% | activity at 1 µM ([3]; 46 h): 121 ± 19.6% | activity at 7.3 µM ([3]; 46 h): 192 ± 24.4% | mitochondrial dehydrogenase activity (effect in words) ([3]; fibroblast cells, higher doses): inhibit mitochondrial dehydrogenase activity | mitochondrial dehydrogenase activity (effect in words) ([3]; fibroblast cells, low dosage): stimulate mitochondrial dehydrogenase activity | No. of cells from photo ± SD (HDF cells [4]; 1 µM, 34 ng/ml TGF-β1): 232±13 | No. of cells from photo ± SD (HDF cells [4]; 1 µM, 100 µM H2O2): 146±26 | No. of cells from photo ± SD (HDF cells [4]; 1 µM, Standard conditions): 160±18 | No. of cells from photo ± SD (HDF cells [4]; 7.3 µM, 34 ng/ml TGF-β1): 193±27 | No. of cells from photo ± SD (HDF cells [4]; 7.3 µM, 100 µM H2O2): 108±3 | No. of cells from photo ± SD (HDF cells [4]; 7.3 µM, Standard conditions): 129±13
